Test results reported in ChEMBL document CHEMBL5055675, “Apoptosis Inducing 1,3,4-Oxadiazole Conjugates of Capsaicin: Their In Vitro Antiproliferative and In Silico Studies” (ACS Med Chem Lett, 2021).
Activity calls are given as the source filed them. No cut-off for these calls is given here.

Experiments:
SNB-75 = experiment: Antiproliferative activity against human SNB-75 cells assessed as cell growth at 10 uM incubated for 48 hrs by sulforhodamine B assay relative to control; format: functional; settings: read-out: Activity
KM12 = experiment: Antiproliferative activity against human KM12 cells assessed as cell growth at 10 uM incubated for 48 hrs by sulforhodamine B assay relative to control; format: functional; settings: read-out: Activity
HCT-15 = experiment: Antiproliferative activity against human HCT-15 cells assessed as cell growth at 10 uM incubated for 48 hrs by sulforhodamine B assay relative to control; format: functional; settings: read-out: Activity
BT-549 = experiment: Antiproliferative activity against human BT-549 cells assessed as cell growth at 10 uM incubated for 48 hrs by sulforhodamine B assay relative to control; format: functional; settings: read-out: Activity
LOX IMVI = experiment: Antiproliferative activity against human LOX IMVI cells assessed as cell growth at 10 uM incubated for 48 hrs by sulforhodamine B assay relative to control; format: functional; settings: read-out: Activity
NCI-H23 = experiment: Antiproliferative activity against human NCI-H23 cells assessed as cell growth at 10 uM incubated for 48 hrs by sulforhodamine B assay relative to control; format: functional; settings: read-out: Activity
SK-OV-3 = experiment: Antiproliferative activity against human SK-OV-3 cells assessed as cell growth inhibition measured after 72 hrs by crystal violet staining based assay; format: functional; settings: SK-OV-3, 72 h
T47D = experiment: Antiproliferative activity against human T47D cells assessed as cell growth at 10 uM incubated for 48 hrs by sulforhodamine B assay relative to control; format: functional; settings: read-out: Activity
UACC-257 = experiment: Antiproliferative activity against human UACC-257 cells assessed as cell growth at 10 uM incubated for 48 hrs by sulforhodamine B assay relative to control; format: functional; settings: read-out: Activity
RXF 393 = experiment: Antiproliferative activity against human RXF 393 cells assessed as cell growth at 10 uM incubated for 48 hrs by sulforhodamine B assay relative to control; format: functional; settings: read-out: Activity
EKVX = experiment: Antiproliferative activity against human EKVX cells assessed as cell growth at 10 uM incubated for 48 hrs by sulforhodamine B assay relative to control; format: functional; settings: read-out: Activity
CCRF-CEM = experiment: Antiproliferative activity against human CCRF-CEM cells assessed as cell growth at 10 uM incubated for 48 hrs by sulforhodamine B assay relative to control; format: functional; settings: read-out: Activity
MDA-MB-435 = experiment: Antiproliferative activity against human MDA-MB-435 cells assessed as cell growth at 10 uM incubated for 48 hrs by sulforhodamine B assay relative to control; format: functional; settings: read-out: Activity
ACHN = experiment: Antiproliferative activity against human ACHN cells assessed as cell growth at 10 uM incubated for 48 hrs by sulforhodamine B assay relative to control; format: functional; settings: read-out: Activity
HOP-62 = experiment: Antiproliferative activity against human HOP-62 cells assessed as cell growth at 10 uM incubated for 48 hrs by sulforhodamine B assay relative to control; format: functional; settings: read-out: Activity
NCI-H226 = experiment: Antiproliferative activity against human NCI-H226 cells assessed as cell growth at 10 uM incubated for 48 hrs by sulforhodamine B assay relative to control; format: functional; settings: read-out: Activity
COLO 205 = experiment: Antiproliferative activity against human COLO 205 cells assessed as cell growth at 10 uM incubated for 48 hrs by sulforhodamine B assay relative to control; format: functional; settings: read-out: Activity
UACC-62 = experiment: Antiproliferative activity against human UACC-62 cells assessed as cell growth at 10 uM incubated for 48 hrs by sulforhodamine B assay relative to control; format: functional; settings: read-out: Activity
NCI-H460 [1] = experiment: Antiproliferative activity against human NCI-H460 cells assessed as cell growth at 10 uM incubated for 48 hrs by sulforhodamine B assay relative to control; format: functional; settings: read-out: Activity
SF-268 = experiment: Antiproliferative activity against human SF-268 cells assessed as cell growth at 10 uM incubated for 48 hrs by sulforhodamine B assay relative to control; format: functional; settings: read-out: Activity
NCI-H460 [2] = experiment: Induction of ROS production in human NCI-H460 cells incubated for 24 hrs by CM-H2DCFDA probe based flow cytometry analysis; format: functional, cell-based; settings: dose 5-20 µM
NCI-H460 [3] = experiment: Effect on p53 expression in human NCI-H460 cells at 1 to 20 uM measured after 72 hrs by western blot analysis; format: functional, cell-based; settings: dose 1-20 µM
M14 = experiment: Antiproliferative activity against human M14 cells assessed as cell growth at 10 uM incubated for 48 hrs by sulforhodamine B assay relative to control; format: functional; settings: read-out: Activity
NCI-H460 [4] = experiment: Induction of apoptosis in human NCI-H460 cells assessed as late apoptotic cells at 20 uM measured after 72 hrs by Annexin V-FITC and propidium iodide staining based flow cytometry analysis (Rvb= 6.93%); format: functional
NCI-H460 [5] = experiment: Induction of apoptosis in human NCI-H460 cells assessed as decrease in pro-caspase3 expression level at 1 to 20 uM measured after 72 hrs by western blot analysis; format: functional, cell-based; settings: dose 1-20 µM
NCI-H460 [6] = experiment: Antimigratory activity against human NCI-H460 cells assessed as reduction in VEGF expression level measured after 72 hrs by western blot analysis; format: functional, cell-based; settings: dose 1-20 µM
NCI-H460 [7] = experiment: Cell cycle arrest in human NCI-H460 cells assessed as accumulation of cells in G1 phase at 20 uM measured after 72 hrs by propidium iodide/RNase staining based flow cytometry analysis (Rvb= 62.9%); format: functional
NCI-H460 [8] = experiment: Cell cycle arrest in human NCI-H460 cells assessed as accumulation of cells in G2/M phase at 20 uM measured after 72 hrs by propidium iodide/RNase staining based flow cytometry analysis (Rvb= 10.22%); format: functional
CAKI-1 = experiment: Antiproliferative activity against human CAKI-1 cells assessed as cell growth at 10 uM incubated for 48 hrs by sulforhodamine B assay relative to control; format: functional; settings: read-out: Activity
NCI-H460 [9] = experiment: Induction of apoptosis in human NCI-H460 cells assessed as early apoptotic cells at 20 uM measured after 72 hrs by Annexin V-FITC and propidium iodide staining based flow cytometry analysis (Rvb= 6.61%); format: functional
PNT2 = experiment: Cytotoxicity against human PNT2 cells assessed as reduction in cell viability at 4 times IC50 measured after 72 hrs by crystal violet staining based assay; settings: pnt2, 72 h
NCI-H460 [10] = experiment: Cell cycle arrest in human NCI-H460 cells assessed as accumulation of cells in S phase at 20 uM measured after 72 hrs by propidium iodide/RNase staining based flow cytometry analysis (Rvb= 26.87%); format: functional
NCI-H460 [11] = experiment: Induction of apoptosis in human NCI-H460 cells assessed as early apoptotic cells at 10 uM measured after 72 hrs by Annexin V-FITC and propidium iodide staining based flow cytometry analysis (Rvb= 6.61%); format: functional
NCI-H460 [12] = experiment: Cell cycle arrest in human NCI-H460 cells assessed as accumulation of cells in G1 phase at 5 uM measured after 72 hrs by propidium iodide/RNase staining based flow cytometry analysis (Rvb= 62.9%); format: functional
NCI-H460 [13] = experiment: Reduction in VEGFR2 mRNA expression in human NCI-H460 cells at 10 to 20 uM by real-time qPCR analysis; format: functional, cell-based; settings: dose 10-20 µM
NCI-H460 [14] = experiment: Cell cycle arrest in human NCI-H460 cells assessed as accumulation of cells in G2/M phase at 10 uM measured after 72 hrs by propidium iodide/RNase staining based flow cytometry analysis (Rvb= 10.22%); format: functional
NCI-H460 [15] = experiment: Cell cycle arrest in human NCI-H460 cells assessed as accumulation of cells in G1 phase at 10 uM measured after 72 hrs by propidium iodide/RNase staining based flow cytometry analysis (Rvb= 62.9%); format: functional

Structure (SMILES) | growth at 10 µM (SNB-75) [%] | growth at 10 µM (KM12) [%] | growth at 10 µM (HCT-15) [%] | growth at 10 µM (BT-549) [%] | growth at 10 µM (LOX IMVI) [%] | growth at 10 µM (NCI-H23) [%] | IC50 (SK-OV-3) [µM] | growth at 10 µM (T47D) [%] | growth at 10 µM (UACC-257) [%] | growth at 10 µM (RXF 393) [%] | growth at 10 µM (EKVX) [%] | growth at 10 µM (CCRF-CEM) [%] | growth at 10 µM (MDA-MB-435) [%] | growth at 10 µM (ACHN) [%] | growth at 10 µM (HOP-62) [%] | growth at 10 µM (NCI-H226) [%] | growth at 10 µM (COLO 205) [%] | growth at 10 µM (UACC-62) [%] | growth at 10 µM (NCI-H460 [1]) [%] | growth at 10 µM (SF-268) [%] | also measured
COc1cc(CNC(=O)CCCC/C=C/C(C)C)ccc1OCc1nnc(SCCc2c[nH]c3ccccc23)o1 | 83.1 | 73.3 | 68.6 | 75 | 55.2 | 66.6 | 31.4 | 43 | 101 | 54 | 57.4 | 34.7 | 90.2 | 76.5 | 92.8 | 67.2 | 71.2 | 67.5 | 89.8 | 78.9 | 
COc1cc(CNC(=O)CCCC/C=C/C(C)C)ccc1OCc1nnc(Nc2ccc([N+](=O)[O-])cc2)o1 | 48.7 | 71.7 | 81.2 | 108 | 55.2 | 62.1 | 6.4 | 48.6 | 77.6 | 54.1 | 74.7 | 78.8 | 66.4 | 41.2 | 0 | 62.1 | 70.9 | 39.6 | 33.5 | 79.7 | Activity (NCI-H460 [2]): Dose-dependent effect; Activity (NCI-H460 [3]): inactive; growth at 10 µM (M14): 69.6%; Activity (NCI-H460 [4]): 17.44%; Activity (NCI-H460 [5]): Active; Activity (NCI-H460 [6]): Dose-dependent effect; Activity (NCI-H460 [7]): 56.45%; Activity (NCI-H460 [8]): 8.706%; growth at 10 µM (CAKI-1): 33.6%; Activity (NCI-H460 [9]): 21.15%; Activity (PNT2): Non-Toxic; Activity (NCI-H460 [10]): 34.83%; Activity (NCI-H460 [11]): 8.29%; Activity (NCI-H460 [12]): 61.8%; inhibition (NCI-H460 [13]): Active; Activity (NCI-H460 [14]): 11.81%; Activity (NCI-H460 [15]): 59.13%
COc1cc(CNC(=O)CCCC/C=C/C(C)C)ccc1OCc1nnc(Nc2cccc(Br)c2)o1 | 83.5 | 90.3 | 90.2 | 76.4 | 88.9 | 66 |  | 58.9 | 105 | 70.6 | 78.1 | 81.8 | 101 | 85.1 | 75.6 | 50.4 | 110 | 67.5 | 97.5 | 92.6 | growth at 10 µM (M14): 93.3%
COc1cc(CNC(=O)CCCC/C=C/C(C)C)ccc1OCc1nnc(Nc2ccccc2F)o1 | 57.8 | 78.8 | 90.1 | 77 | 83.4 | 63.8 | 12.5 | 65 | 98.2 | 68.8 | 77.1 | 83 | 100 | 56 | 56.4 | 64.5 | 104 | 65.5 | 80.3 | 45.5 | growth at 10 µM (M14): 99.7%
